Assay results taken from PubChem BioAssay AID588568 (The Scripps Research Institute Molecular Screening Center, 2011).
Calls of active or inactive are those of the source. How the calls were made is not given here.

Target: Melanin-concentrating hormone receptor 1 (Homo sapiens) (UniProt Q99705)
Assay: MCHR1 antagonists, dose response, counter-screen for GPR7 antagonist project, cell-based, fluorescence, set 4 (AID 588568)
Details: MCHR1-expressing cells, fluorescence antagonist assay; run 1

Row | Compound | IC50
1 | COCc1ccc(Oc2c(Cl)cnn(Cc3cccc4ccccc34)c2=O)cc1 | > 20 µM (inactive)
2 | COc1ccc(Oc2c(Cl)cnn(-c3ccc(OC)cc3)c2=O)cc1 | inactive
3 | COc1ccc(Oc2c(Cl)cnn(-c3ccc4ccccc4c3)c2=O)cc1 | 0.438 µM
4 | COc1ccc(Oc2c(Cl)cnn(C(C(=O)OCCC3CCCC3)c3ccccc3Cl)c2=O)cc1 (stereo not given) | > 20 µM (inactive)
5 | CCCCOC(=O)C(c1ccccc1Cl)n1ncc(Cl)c(Oc2ccc(OC)cc2)c1=O (stereo not given) | inactive
6 | COc1ccc(Oc2c(Cl)c(C3=CCCCC3)nn(Cc3ccccc3C)c2=O)cc1 | 3.57 µM
7 | COc1ccc(Oc2c(Cl)cnn(-c3ccc(Cl)cc3)c2=O)cc1 | inactive
8 | COc1ccc(Oc2c(Cl)cnn(C(c3ccccc3)c3cccc4ccccc34)c2=O)cc1 (stereo not given) | > 20 µM (inactive)
9 | O=C(O)c1ccc(Oc2c(Cl)cnn(Cc3cccc4ccccc34)c2=O)cc1 | > 20 µM (inactive)
10 | COc1ccc(Oc2c(Cl)c(-c3ccccc3C)nn(Cc3ccccc3C)c2=O)cc1 | 1.79 µM
11 | COc1ccc(Oc2c(Cl)c(-c3ccc(OC)cc3)nn(Cc3ccccc3C)c2=O)cc1 | > 20 µM (inactive)
12 | C=Cc1cnn(Cc2cccc3ccccc23)c(=O)c1Oc1ccc(OC)cc1 | 1.69 µM
13 | CC(C)c1ccc(-n2ncc(Cl)c(Oc3ccc(O)cc3)c2=O)cc1 | > 20 µM (inactive)
14 | COc1ccc(Oc2ccn(-c3ccc(C)cc3)c(=O)c2Cl)cc1 | 2.79 µM
15 | COc1cccc(Oc2c(Cl)cnn(-c3cc(C)cc(C)c3)c2=O)c1 | > 20 µM (inactive)
16 | COc1ccc(Oc2c(Cl)cnn(C(CO)c3ccccc3)c2=O)cc1 (stereo not given) | inactive
17 | Cc1cc(CN2CCCCC2C(=O)N2CCN(c3ccc([N+](=O)[O-])cc3)CC2)ccc1Cl (stereo not given) | 1.42 µM
18 | O=c1c(Oc2ccc(CCl)cc2)c(Cl)cnn1Cc1cccc2ccccc12 | 7.92 µM
19 | CC(C)c1ccc(-n2ncc(Cl)c(Oc3ccc(CO)cc3)c2=O)cc1 | 4.73 µM
20 | CCc1cccc(-n2ncc(Cl)c(Oc3ccc(OC)cc3)c2=O)c1 | 2.31 µM
21 | Cc1ccccc1Cn1ncc(Cl)c(Oc2ccc(CO)cc2)c1=O | 4.92 µM
22 | CCOc1ccc(Cn2ncc(Cl)c(Oc3ccc(OC)cc3)c2=O)cc1C#N | 9.37 µM
23 | COc1ccc(Nc2ccnn(Cc3cccc4ccccc34)c2=O)cc1 | > 20 µM (inactive)
24 | Cc1cc(C)cc(-n2ncc(Cl)c(Oc3ccc(Oc4ccccc4)cc3)c2=O)c1 | 2.24 µM
25 | COc1ccc(Oc2c(Cl)cnn(-c3ccc(Br)cc3)c2=O)cc1 | 6.4 µM
26 | COc1ccc(Oc2c(OC)nn(-c3cccc(C)c3)c(=O)c2Oc2ccc(OC)cc2)cc1 | inactive
27 | COc1ccc(Oc2c(Cl)cnn(-c3ccccc3)c2=O)cc1 | inactive
28 | O=c1c(Oc2ccc(OC(F)(F)F)cc2)c(Cl)cnn1Cc1cccc2ccccc12 | inactive
29 | CCN(CC)C(=O)C(c1ccccc1Cl)n1ncc(Cl)c(Oc2ccc(OC)cc2)c1=O (stereo not given) | > 11.5 µM (inactive)
30 | O=c1c(Oc2ccc(CO)cc2)c(Cl)cnn1Cc1cccc2ccccc12 | 6.75 µM
